Measurements taken from PubChem BioAssay (NCI).
Several values for one entry are separate records, joined by “and”; a condition that tells them apart may be missing. Equal values may be shown once.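 In this assay, cells in 96-well plates receive the compound at five concentrations for 48 hours. Endpoints are linearly interpolated between the surrounding concentrations. GI50: concentration for 50% inhibition of growth. At the TGI there is no net growth.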 Where a SMILES comes first, the peptide text is derived from it. [ ]: non-standard residue; d: D form. The star is where a group is joined. ξ: configuration not given here. X3 = COc1ccc(C(N*)c2ccc(OC)cc2)cc1; NMeF = CN[C@@H](Cc1ccccc1)C(=O)O; NMeD = CN[C@@H](CC(=O)O)C(=O)O; NMeV = CN[C@H](C(=O)O)C(C)C; ξNMeV = CNC(C(=O)O)C(C)C; Boc = CC(C)(C)OC(=O)*; ξNMeA = CNC(C)C(=O)O; ξV = CC(C)C(N)C(=O)O

How the values were obtained:
Assay in all cases: NCI anticancer screen, dose series, 48 h
HOP-92 NSCLC = test system: HOP-92 NSCLC
PC-3 prostate = test system: PC-3 prostate
SF-295 CNS = test system: SF-295 CNS
SK-OV-3 ovarian = test system: SK-OV-3 ovarian
UACC-257 melanoma = test system: UACC-257 melanoma
IGROV1 ovarian = test system: IGROV1 ovarian
A498 renal = test system: A498 renal
COLO 205 colon = test system: COLO 205 colon
SF-539 CNS = test system: SF-539 CNS
KM12 colon = test system: KM12 colon

Compound | GI50 (HOP-92 NSCLC) [µM] | TGI (HOP-92 NSCLC) | GI50 (PC-3 prostate) [µM] | TGI (PC-3 prostate) | GI50 (SF-295 CNS) [µM] | TGI (SF-295 CNS) | GI50 (SK-OV-3 ovarian) [µM] | TGI (SK-OV-3 ovarian) | GI50 (UACC-257 melanoma) [µM] | TGI (UACC-257 melanoma) | GI50 (IGROV1 ovarian) [µM] | TGI (IGROV1 ovarian) | GI50 (A498 renal) [µM] | TGI (A498 renal) | GI50 (COLO 205 colon) [µM] | TGI (COLO 205 colon) | GI50 (SF-539 CNS) [µM] | TGI (SF-539 CNS) | GI50 (KM12 colon) [µM] | TGI (KM12 colon)
CCN(Cc1ccc(F)cc1)c1cc(Cl)c(CO)c(Cl)c1 | 3.61 | 18.1 µM | 11.3 | 24.7 µM | 10.9 | 25.6 µM | 15.2 | 28.7 µM | 6.56 | 20.4 µM | 4.08 | 17.9 µM | 1.37 | 6.39 µM | 17.3 | 31.4 µM | 16.2 | 30.4 µM | – | –
Nc1cc(NN=C(c2ccc(O)cc2)c2ccc(O)cc2)c([N+](=O)[O-])cc1[N+](=O)[O-] | 2.18 | 8.2 µM | 3.31 | 12.4 µM | 1.4 | 2.91 µM | 2.35 | 6.4 µM | 4.3 | 17.1 µM | 2.28 | 5.38 µM | 1.69 | 3.55 µM | 1.85 | 4.49 µM | 1.7 | 3.85 µM | 1.52 | 2.85 µM
O=C(Nc1ccc(Oc2ccc(Nc3nc4ccccc4s3)cc2)cc1)Nc1ccc(Cl)c(C(F)(F)F)c1 | 0.73 | 3.28 µM | 1.07 | 2.79 µM | 1.66 | 3.41 µM | 1.86 | 4.42 µM | 1.83 | 6.09 µM | 1.67 | 3.62 µM | 1.46 | 3.16 µM | 1.64 | 3.25 µM | 1.64 | 3.75 µM | 1.51 | 3.34 µM
O=C(CCCSc1nc(-c2ccccc2)cc(-c2ccccc2)n1)NO | 1.58 | 6.13 µM | 1.72 | 13.6 µM | 2.17 | 6.98 µM | 1.94 | 5.57 µM | 1.77 | 6.71 µM | 1.5 | 9.13 µM | 1.12 | 3.1 µM | 1.86 | 5.1 µM | 1.92 | 7.09 µM | 2.64 | 12.9 µM
COc1ccc(C(NC(=O)C[C@@H](C(=O)N(C)C(C)C(=O)O)N(C)C(=O)[C@@H]2CCCN2C(=O)[C@H](C(C)C)N(C)C(=O)C(C(C)C)N(C)C(=O)[C@H](Cc2ccccc2)N(C)C(=O)C(NC(=O)OC(C)(C)C)C(C)C)c2ccc(OC)cc2)cc1 (stereo partly specified) (Boc-[ξV][NMeF][ξNMeV][NMeV]P[NMeD](X3)[ξNMeA]-OH) | 15.8 | 23.8 µM and 29.2 µM | – | 37.5 µM | – | 30.2 µM and 32.8 µM | 19.2 | > 37.5 µM and 33.3 µM | 17.3 | 23 µM and 32.2 µM | 14.7 | 27.8 µM and 28 µM | 20.1 | > 37.5 µM and 35.7 µM | 17.2 | 32.1 µM and 30.9 µM | 22.5 | 17.9 µM and 39.8 µM | 17.5 | 15.2 µM and 34.1 µM
C[C@]12CCC3c4ccc(O)cc4CCC3C1CC[C@@]2(O)CNC(=O)/C=C/c1ccc(O)c(O)c1 (stereo partly specified) | 12.1 | 33.6 µM | 5.65 | 22.8 µM | 4.07 | 22.1 µM | 16.7 | 34.5 µM | 0.0562 | 6.54 µM | 2.47 | 7.26 µM | 14.9 | 29.8 µM | 3.55 | 10.4 µM | 5.1 | 18 µM | 2.89 | 11.1 µM
CCC(=C/[C@H](C)C/C=C/C(C)=C/[C@@H](C)C(=O)[C@@H](C)[C@H](O)[C@@H](C)CC)/C=C/[C@H]1OC(=O)C=C[C@@H]1C | < 0.01 | 1.2 µM | < 0.01 | 3.04 µM | < 0.01 | 1.43 µM | < 0.035 | 13.4 µM | – | – | < 0.01 | 7.67 µM | < 0.01 | < 0.01 µM | < 0.01 | 0.345 µM | < 0.01 | < 0.01 µM | < 0.01 | 1.15 µM
Nc1c(C(=O)Nc2cccc(C(F)(F)F)c2)sc2nc3c(cc12)CCCCC3 | 1.82 | 6.23 µM | 3.21 | 34.2 µM | 2.2 | 12.2 µM | 1.85 | 4.36 µM | 3.64 | 37.4 µM | – | – | 1.53 | 7.08 µM | 11.7 | > 100 µM | 1.94 | 4.48 µM | 5.33 | > 100 µM
CC1(C)OC1COc1c2occc2cc2ccc(=O)oc12 (stereo unspecified) | – | > 100 µM | – | > 100 µM | – | > 100 µM | – | – | – | > 100 µM | – | > 100 µM | – | > 100 µM | – | > 100 µM | – | > 100 µM | – | > 100 µM
CC1=C2C(=C[C@@](C)(CO)[C@@H]2O)C(=O)[C@](C)(O)C12CC2 | – | 0.061 µM | – | 0.0661 µM and 0.0121 µM | – | – | – | 0.0302 µM and 0.0394 µM | – | 0.0308 µM and 0.0229 µM | – | 0.0583 µM | – | 0.0288 µM | – | 0.0218 µM | – | 0.0181 µM and 0.0175 µM | – | 0.105 µM and 0.568 µM
Nc1n[nH]c2cccc(C#Cc3cccc(C(=O)Nc4ccc(CN5CCOCC5)c(C(F)(F)F)c4)c3)c12 | 1.12 | 4.29 µM | 2.16 | 7.79 µM | 2.03 | 6.1 µM | 4 | 17.5 µM | 2.41 | 10.6 µM | 2.35 | 7.01 µM | – | – | 1.35 | 6.99 µM | 1.05 | 3.47 µM | 2.81 | 9.65 µM
Cc1cc(I)cc(CN(CCCN(C)C)C(C)C)c1O | 5.77 | 31.9 µM | 14 | 30.4 µM | – | – | 15.1 | 30.9 µM | 16.7 | 32.5 µM | 15.9 | 31.7 µM | 21 | 37.8 µM | 14.7 | 27.8 µM | 15.3 | 29.1 µM | 18 | 36 µM
COc1ccc(C2[C@@H](c3ccccc3)C(=O)N2c2cc(OC)c(OC)c(OC)c2)cc1F (stereo partly specified) | 2.84 | > 100 µM | 0.0403 | > 100 µM | 0.029 | 1.78 µM | 0.0348 | > 100 µM | – | – | 0.0428 | > 100 µM | 0.027 | 0.0861 µM | – | – | 0.0234 | 0.0706 µM | 0.0331 | > 100 µM
Oc1[nH]c2ccccc2c1N=Nc1nc(-c2ccc(Br)cc2)cs1 | – | 31.7 µM | – | > 100 µM | – | 67.7 µM | – | 66.3 µM | – | 66.1 µM | – | 23.1 µM | – | – | – | 79.1 µM | – | 34.3 µM | – | > 100 µM
